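Compound exposure: 48 hours, 5 concentrations, 96-well plates. GI50 is the concentration that inhibits growth by half.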 Active and inactive are the calls of the source. No stated cut-off is given here; in the data, active = GI50 up to about 1.1 µM and inactive = higher.
Experiments:
Experiment in all cases: NCI anticancer screen, dose series, 48 h
MDA-MB-435 = tested on: MDA-MB-435
MCF7 = tested on: MCF7
786-0 = tested on: 786-0
HOP-62 = tested on: HOP-62
LXFL 529 = tested on: LXFL 529
SF-539 = tested on: SF-539
SNB-78 = tested on: SNB-78
DMS-114 = tested on: DMS-114
RXF 631 = tested on: RXF 631

Structure (SMILES)	GI50 (MDA-MB-435)	GI50 (MCF7)	GI50 (786-0)	GI50 (HOP-62)	GI50 (LXFL 529)	GI50 (SF-539)	GI50 (SNB-78)	GI50 (DMS-114)	GI50 (RXF 631)
CNC(=S)Nc1sc2c(c1C#N)CCCC2	> 75 µM (inactive)	> 75 µM (inactive)	> 75 µM (inactive)	> 75 µM (inactive)					
CCOC(=O)N1C=NC23C(c4ccccc4)C(c4ccccc4)C12C(=O)N(C)C(=O)N3C (stereo unspecified)			> 100 µM (inactive)	> 100 µM (inactive)	> 100 µM (inactive)				
SC1=Nc2ccccc2-c2nc(-c3ccccc3)cc(-c3ccc(Br)cc3)c2C1	6.73 µM (inactive)	4.59 µM (inactive)		1.31 µM (inactive)		3.27 µM (inactive)			
Cn1c(=O)c(-c2ccccc2)c(N=[N+]=[N-])c2ccccc21	45.4 µM (inactive)	54.3 µM (inactive)		45 µM (inactive)		54 µM (inactive)			
CC1CC[P+](c2ccccc2)(c2ccccc2)c2c1ccc1ccccc21 (stereo unspecified)	1.52 µM (inactive)	2.26 µM (inactive)			0.83 µM (active)	5.26 µM (inactive)	2.67 µM (inactive)		
Cc1cc2c(cc1C)[n+]([O-])c(C#N)c(Cl)[n+]2[O-]	21 µM (inactive)	12.9 µM (inactive)		19.6 µM (inactive)		14.3 µM (inactive)			
CCCCCCCCCCCCCC(=O)OC1C(O)C(CO)OC(OC)C1NC(=O)N(CCCl)N=O (stereo unspecified)				50.7 µM (inactive)	> 100 µM (inactive)	16.4 µM (inactive)			
CC(C)=CCC/C(C)=C/C=C/C(C)=C/C1C[C@@]2(C(O)O1)[C@H](CCCO)/C(=C(/C)C=O)CC[C@]2(C)O (stereo partly specified)						12.2 µM (inactive)	20.5 µM (inactive)	13.3 µM (inactive)	
COc1ccc(-c2nc3ccc([N+](=O)[O-])cc3c(=O)[nH]2)cc1		46.5 µM (inactive)		> 45.6 µM (inactive)		14.5 µM (inactive)	19.9 µM (inactive)	33 µM (inactive)	
C1CSCCSCSCCS1	> 100 µM (inactive)	> 100 µM (inactive)		> 100 µM (inactive)		> 100 µM (inactive)			
C[C@@H]1CC[C@H]2[C@H]1[C@H]1[C@@H](CC[C@]2(C)N=C=S)C1(C)C	24.8 µM (inactive)	17.5 µM (inactive)		31.8 µM (inactive)					
C#Cc1cccc(N2C(=O)c3c(c(-c4ccccc4)c(-c4ccc(Cc5ccc(-c6c(-c7ccccc7)c7c(c(-c8ccccc8)c6-c6ccccc6)C(=O)N(c6cccc(C#C)c6)C7=O)cc5)cc4)c(-c4ccccc4)c3-c3ccccc3)C2=O)c1			30.2 µM (inactive)	25.8 µM (inactive)	14.9 µM (inactive)	21.2 µM (inactive)	47.4 µM (inactive)	20.5 µM (inactive)	
c1cncc(O[Si](Oc2cccnc2)(Oc2cccnc2)Oc2cccnc2)c1						> 100 µM (inactive)	> 100 µM (inactive)	> 100 µM (inactive)	> 100 µM (inactive)
N#Cc1ccc(C2Oc3ccc(Cl)cc3C=C2[N+](=O)[O-])cc1 (stereo unspecified)	1.73 µM (inactive)	1.4 µM (inactive)		1.98 µM (inactive)		1.87 µM (inactive)			
